From patent US7932262B2 (Novartis AG, priority 2006, dated 2011)
Where two headings read alike, the source gives them in different places.

Columns and labels:
PC-3 cells = test: Cell Proliferation Assay (Cell Titer Glo), PC-3 cell line; assay type: cell-based; conditions: read-out: CPEC50 PC3
Outline: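 Cell Titer Glo luminescence, read after fresh medium replaced the dosing medium, gave viability of PC-3 cells plated at 1000 cells/well. Compounds, 1:3 serially diluted in DMSO at 500× and then in medium, were added after 3-5 h adhesion and incubated 3 days at 37° C.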

PDK1 kinase = target: T1, PDK1 kinase (Homo sapiens, UniProt O15530); test: PDK1 Kinase Alpha Screen Assay; assay type: biochemical; conditions: read-out: PDK1 IC50
T1 sequence (O15530 1-556): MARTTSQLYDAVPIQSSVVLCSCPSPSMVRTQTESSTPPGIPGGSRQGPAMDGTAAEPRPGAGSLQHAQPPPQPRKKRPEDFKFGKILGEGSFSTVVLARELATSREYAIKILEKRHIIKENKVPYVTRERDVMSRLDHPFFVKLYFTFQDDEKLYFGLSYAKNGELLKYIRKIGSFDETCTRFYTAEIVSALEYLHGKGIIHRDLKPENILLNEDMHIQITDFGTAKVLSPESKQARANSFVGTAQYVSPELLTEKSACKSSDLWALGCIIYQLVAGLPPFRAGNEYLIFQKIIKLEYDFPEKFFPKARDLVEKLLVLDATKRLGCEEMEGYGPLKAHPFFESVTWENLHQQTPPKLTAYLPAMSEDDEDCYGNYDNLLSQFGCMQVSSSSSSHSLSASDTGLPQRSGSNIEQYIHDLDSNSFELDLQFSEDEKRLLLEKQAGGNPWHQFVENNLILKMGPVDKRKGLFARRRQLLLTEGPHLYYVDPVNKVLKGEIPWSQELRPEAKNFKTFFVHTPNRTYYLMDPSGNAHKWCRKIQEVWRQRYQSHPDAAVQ
Outline: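 AlphaScreen readout: phospho-peptide captured by phospho-(Ser/Thr) PKA substrate antibody (0.3 mg/ml) on protein A acceptor beads, biotin peptide on streptavidin donor beads (25 μg/ml each), overnight at room temperature. Kinase step used 50 nM PDK1-4 peptide, 10 uM ATP, 3-18 hours.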

| SMILES | EC50 (PC-3 cells; Homo sapiens, PC-3, PC3 cells) [µM] | IC50 (PDK1 kinase) [µM] | EC50 (PC-3 cells; PC3 cells) [µM] |
| --- | --- | --- | --- |
| NS(=O)(=O)c1ccc(Nc2ncc3cccc(-c4cncc(C(=O)O)c4)c3n2)cc1 [Compound 962, 5-(2-(4-sulfamoylphenylamino)quinazolin-8-yl)nicotinic acid] | 5 to 10 | 5 to 10 | – |
| CN1CCN(c2ccc(-c3cc(C(F)(F)F)cc4cnc(Nc5ccc(S(N)(=O)=O)cc5)nc34)cn2)CC1 [Compound 964, 4-(8-(6-(4-methylpiperazin-1-yl)pyridin-3-yl)-6-(trifluoromethyl)quinazolin-2-ylamino)benzenesulfonamide] | < 5 | 5 to 10 | – |
| CN(C)C1CCN(C(=O)c2cncc(-c3cccc4cnc(Nc5ccc(S(N)(=O)=O)cc5)nc34)c2)CC1 [Compound 980, 4-(8-(5-(4-(dimethylamino)piperidine-1-carbonyl)pyridin-3-yl)quinazolin-2-ylamino)benzenesulfonamide] | 5 to 10 | < 5 | – |
| CN1CCC(NC(=O)c2cncc(-c3cccc4cnc(Nc5ccc(S(N)(=O)=O)cc5)nc34)c2)CC1 [Compound 981, N-(1-methylpiperidin-4-yl)-5-(2-(4-sulfamoylphenylamino)quinazolin-8-yl)nicotinamide] | 5 to 10 | < 5 | – |
| CN1CCC(CNC(=O)c2cncc(-c3cccc4cnc(Nc5ccc(S(N)(=O)=O)cc5)nc34)c2)CC1 [Compound 982, N-((1-methylpiperidin-4-yl)methyl)-5-(2-(4-sulfamoylphenylamino)quinazolin-8-yl)nicotinamide] | 5 to 10 | < 5 | – |
| NS(=O)(=O)c1ccc(Nc2ncc3cccc(-c4cncc(C(=O)N5CCNC(=O)C5)c4)c3n2)cc1 [Compound 983, 4-(8-(5-(3-oxopiperazine-1-carbonyl)pyridin-3-yl)quinazolin-2-ylamino)benzenesulfonamide] | 5 to 10 | < 5 | – |
| NS(=O)(=O)c1ccc(Nc2ncc3cccc(-c4cncc(C(=O)N5CCOCC5)c4)c3n2)cc1 [Compound 984, 4-(8-(5-(morpholine-4-carbonyl)pyridin-3-yl)quinazolin-2-ylamino)benzenesulfonamide] | 5 to 10 | < 5 | – |
| CN1CCN(c2ccc(-c3cccc4cnc(Nc5ccc(S(N)(=O)=O)cc5)nc34)cc2)CC1 [Compound 985, 4-(8-(4-(4-methylpiperazin-1-yl)phenyl)quinazolin-2-ylamino)benzenesulfonamide] | < 5 | < 5 | – |
| NS(=O)(=O)c1ccc(Nc2ncc3cccc(-c4ccc(CN5CCOCC5)cc4)c3n2)cc1 [Compound 986, 4-(8-(4-(mopholinomethyl)phenyl)quinazolin-2-ylamino)benzenesulfonamide] | < 5 | < 5 | – |
| NS(=O)(=O)c1ccc(Nc2ncc3cccc(C4=CCNCC4)c3n2)cc1 [Compound 987, 4-(8-(1.2,3,6-tetrahydropyridin-4-yl)quinazolin-2-ylamino)benzenesulfonamide] | < 5 | < 5 | – |
| CC(C)NC(=O)c1ccc(Nc2ncc3cccc(-c4ccc(NCCN5CCCC5)nc4)c3n2)cc1 [Compound 993, N-isopropyl-4-(8-(6-(2-(pyrrolidin-1-yl)ethylamino)pyridin-3-yl)quinazolin-2-ylamino)benzamide] | < 5 | < 5 | – |
| Fc1ccc(Nc2ncc3cccc(-c4ccc(NCCN5CCCC5)nc4)c3n2)cc1 [Compound 994, N-(4-fluorophenyl)-8-(6-(2-(pyrrolidin-1-yl)ethylamino)pyridin-3-yl)quinazolin-2-amine] | < 5 | < 5 | – |
| Clc1ccc(Nc2ncc3cccc(-c4ccc(NCCN5CCCC5)nc4)c3n2)cc1 [Compound 995, N-(4-chorophenyl)-8-(6-(2-(pyrrolidin-1-yl)ethylamino)pyridin-3-yl)quinazolin-2-amine] | – | < 5 | < 5 |
| c1cc(-c2ccc(NCCN3CCCC3)nc2)c2nc(Nc3ccc(N4CCOCC4)cc3)ncc2c1 [Compound 996, N-(4-morpholinophenyl)-8-(6-(2-(pyrrolidin-1-yl)ethylamino)pyridin-3-yl)quinazolin-2-amine] | < 5 | < 5 | – |

Now from value to compound:

| EC50 (PC-3 cells; Homo sapiens, PC-3, PC3 cells) [µM] | IC50 (PDK1 kinase) [µM] | EC50 (PC-3 cells; PC3 cells) [µM] | SMILES |
| --- | --- | --- | --- |
| < 5 | < 5 | – | NS(=O)(=O)c1ccc(Nc2ncc3cccc(-c4ccc(NCCN5CCOCC5)nc4)c3n2)cc1 [Compound 953, 4-(8-(6-(2-morpholinoethylamino)pyridin-3-yl)quinazolin-2-ylamino)benzenesulfonamide] |
| < 5 | < 5 | – | CCN(CC)CCNc1ccc(-c2cccc3cnc(Nc4ccc(S(N)(=O)=O)cc4)nc23)cn1 [Compound 954, 4-(8-(6-(2-(diethylamino)ethylamino)pyridin-3-yl)quinazolin-2-ylamino)benzenesulfonamide] |
| < 5 | < 5 | – | CN1CCC(Nc2ccc(-c3cccc4cnc(Nc5ccc(S(N)(=O)=O)cc5)nc34)cn2)CC1 [Compound 955, 4-(8-(6-(1-methylpiperidin-4-ylamino)pyridin-3-yl)quinazolin-2-ylamino)benzenesulfonamide] |
| < 5 | < 5 | – | CC(C)N1CCN(c2ccc(-c3cccc4cnc(Nc5ccc(S(N)(=O)=O)cc5)nc34)cn2)CC1 [Compound 956, 4-(8-(6-(4-isopropylpiperazin-1-yl)pyridin-3-yl)quinazolin-2-ylamino)benzenesulfonamide] |
| < 5 | < 5 | – | NS(=O)(=O)c1ccc(Nc2ncc3cc(C(F)(F)F)cc(-c4ccc(NCCN5CCCC5)nc4)c3n2)cc1 [Compound 963, 4-(8-(6-(2-(pyrrolidin-1-yl)ethylamino)pyridin-3-yl)-6-(trifluoromethyl)quinazolin-2-ylamino)benzenesulfonamide] |
| < 5 | < 5 | – | NS(=O)(=O)c1ccc(Nc2ncc3cc(C(F)(F)F)cc(-c4ccc(N5CCNC(=O)C5)nc4)c3n2)cc1 [Compound 965, 4-(8-(6-(3-oxopiperazin-1-yl)pyridin-3-yl)-6-(trifluoromethyl)quinazolin-2-ylamino)benzenesulfonamide] |
| < 5 | < 5 | – | CC(C)NCCCNc1ccc(-c2cccc3cnc(Nc4ccc(S(N)(=O)=O)cc4)nc23)cn1 [Compound 971, 4-(8-(6-(3-(isopropylamino)propylamino)pyridin-3-yl)quinazolin-2-ylamino)benzenesulfonamide] |
| < 5 | < 5 | – | NS(=O)(=O)c1ccc(Nc2ncc3cccc(-c4ccc(NCCCN5CCCC5)nc4)c3n2)cc1 [Compound 972, 4-(8-(6-(3-(pyrrolidin-1-yl)propylamino)pyridin-3-yl)quinazolin-2-ylamino)benzenesulfonamide] |
| < 5 | < 5 | – | CCN1CCC[C@H]1CNc1ccc(-c2cccc3cnc(Nc4ccc(S(N)(=O)=O)cc4)nc23)cn1 [Compound 973, (S)-4-(8-(6-((1-ethylpyrrolidin-2-yl)methyamino)-pyridin-3-yl)quinazolin-2-ylamino)benzenesulfonamide] |
| < 5 | < 5 | – | CCN1CCC[C@@H]1CNc1ccc(-c2cccc3cnc(Nc4ccc(S(N)(=O)=O)cc4)nc23)cn1 [Compound 974, (R)-4-(8-(6-((1-ethylpyrrolidin-2-yl)methylamino)pyridin-3-yl)quinazolin-2-ylamino)benzenesulfonamide] |
| < 5 | < 5 | – | CN1CCC(CNc2ccc(-c3cccc4cnc(Nc5ccc(S(N)(=O)=O)cc5)nc34)cn2)CC1 [Compound 975, 4-(8-(6-((1-methylpiperidin-4-yl)methylamino)pyridin-3-yl)quinazolin-2-ylamino)benzenesulfonamide] |
| 5 to 10 | < 5 | – | CN(C)[C@@H]1CCN(C(=O)c2cncc(-c3cccc4cnc(Nc5ccc(S(N)(=O)=O)cc5)nc34)c2)C1 [Compound 976, (R)-4-(8-(5-(3-(dimethylamino)pyrrolidine-1-carbonyl)pyridin-3-yl)quinazolin-2-ylamino)benzenesulfonamide] |
| 5 to 10 | < 5 | – | CN1CCN(C(=O)c2cncc(-c3cccc4cnc(Nc5ccc(S(N)(=O)=O)cc5)nc34)c2)CC1 [Compound 977, 4-(8-(5-(4-methylpiperazine-1-carbonyl)pyridin-3-yl)quinazolin-2-ylamino)benzenesulfonamide] |
| 5 to 10 | < 5 | – | CN(C)[C@H]1CCN(C(=O)c2cncc(-c3cccc4cnc(Nc5ccc(S(N)(=O)=O)cc5)nc34)c2)C1 [Compound 978, (S)-4-(8-(5-(3-(dimethylamino)pyrrolidine-1-carbonyl)pyridin-3-yl)quinazolin-2-ylamino)benzenesulfonamide] |
| 5 to 10 | < 5 | – | NS(=O)(=O)c1ccc(Nc2ncc3cccc(-c4cncc(C(=O)NCCN5CCCC5)c4)c3n2)cc1 [Compound 979, N-(2-(pyrrolidin-1-yl)ethyl)-5-(2-(4-sulfamoylphenylamino)quinazolin-8-yl)nicotinamide] |
